# Measurements reported in patent US20190263796A1, “LIM KINASE INHIBITORS, PHARMACEUTICAL COMPOSITION AND METHOD OF USE IN LIMK-MEDIATED DISEASES” (CELLIPSE, priority 2016, published 2019).
# Read-outs that look alike come from different tables or passages of the source.
# Key:
# [1] = tested on: Phospho-Ser3-Cofilin/Total Cofilin; assay: Western blot cofilin phosphorylation, HL-60; type: cell-based; settings: HL-60 cells, 2 h
# Method: (§1) HL-60 cell line was originally purchased from the Leibniz-Institut Deutsche Sammlung von Mikroorganismen und Zellkulturen GmbH (DSMZ). HL-60 cells are cultured in RPMI 1640 10% (v/v) FBS supplemented with 100 U/mL^−1 penicillin, 0.1 mg·mL^−1 streptomycin (PAN Biotech P06-07100). Cells were maintained at 37° C. with 5% CO2.
# (§2) In a 6 wells plate (Falcon 353046), 2·10^6 cells in 1.5 mL medium are treated for 2 h with compounds. Cells are then collected and cell lysis is performed at 4° C. using RIPA buffer supplemented with protease inhibitors cocktail (Sigma-Aldrich P8340) and phosphatase inhibitors cocktail (Sigma-Aldrich P5726). Following centrifugation 30 min 15000 g 4° C., supernatants are mixed with Laemmli buffer and denaturation is performed by heating 5 min 95° C. 10 μL of samples are subjected to electrophoresis on 15% SDS-PAGE. After electro-transfer (Mini Transblot, Bio-Rad), the PVDF membrane (Merck-Millipore Immobilon P IPVH00010) is blocked with Tris Buffered Saline, pH 7.4 (TBS) with 0.1% Tween 20 and 5% BSA for 1 h RT under agitation. The membrane was rinsed 3 times 10 min at room temperature under agitation with TBS, 0.1% Tween-20 (TBST) and then 1 h at room temperature with anti-phospho-Ser3-cofilin (Cell Signaling Technology #3313, 1/1000 dilution) antibody or anti-cofilin (Cell Signaling Technology #3312, 1/1000 dilution) diluted in TBS, 0.1% Tween 20 and 1% BSA. The membrane is then rinsed 3 times 10 min at room temperature under agitation in TBST and incubated for 1 h with anti-rabbit secondary antibody, horseradish peroxidase conjugated (Jackson Immunoresearch #711-036-152) under agitation at room temperature. After three washes 10 min at room temperature in TBST, the detection of total or phosphorylated cofilin was performed using chemiluminescence kit ECL™ Plus (GE Healthcare RPN2132). For each concentration of compound, ratio between phosphorylated cofilin and total cofilin is determined. This ratio is then expressed as percentage of control ratio (i.e., ratio from DMSO treated cells). IC50 Phospho-Ser3-Cofilin/Total Cofilin is then determined.
# [2] = tested on: Phospho-Ser3-Cofilin/Total Cofilin; assay: Western blot cofilin phosphorylation, MOLM-13; type: cell-based; settings: Homo sapiens, MOLM-13 cells
# Method: as §1, with “MOLM-13” for “HL-60”, “20%” for “10%”
# as §2
# [3] = tested on: P-MEK/Total MEK; assay: Western blot MEK1 phosphorylation, HL-60; type: cell-based; settings: HL-60 cells; for IC50: 2 h, read-out: IC50 P-MEK/Total MEK; for Selectivity ratio: IC50 P-MEK/Total MEK divided by IC50 Phospho-Ser3-Cofilin/Total Cofilin
# Method: as §1
# (§3) In a 6 wells plate (Falcon 353046), 2·10^6 cells in 1.5 mL medium are treated for 2 h with compounds. Cells are then collected and cell lysis is performed at 4° C. using RIPA buffer supplemented with protease inhibitors cocktail (Sigma-Aldrich P8340) and phosphatase inhibitors cocktail (Sigma-Aldrich P5726). Following centrifugation 30 min 15000 g 4° C., supernatants are mixed with Laemmli buffer and denaturation is performed by heating 5 min 95° C. 10 μL of samples are subjected to electrophoresis on 15% SDS-PAGE. After electro-transfer (Mini Transblot, Bio-Rad), the PVDF membrane (Merck-Millipore Immobilon P IPVH00010) is blocked with Tris Buffered Saline, pH 7.4 (TBS) with 0.1% Tween 20 and 5% BSA for 1 h at room temperature under agitation. The membrane was rinsed 3 times 10 min at room temperature under agitation with TBS, 0.1% Tween-20 (TBST) and then 1 h at room temperature with anti-phospho-Ser218/222-MEK1 (Merck-Millipore 07-461, 1/1000 dilution) antibody or anti-MEK1 (Merck-Millipore 07-641, 1/1000 dilution) diluted in TBS, 0.1% Tween 20 and 1% BSA. The membrane is then rinsed 3 times 10 min RT under agitation in TBST and incubated for 1 h with anti-rabbit secondary antibody, horseradish peroxidase conjugated (Jackson Immunoresearch #711-036-152) under agitation at room temperature. After three washes 10 min at room temperature in TBST, the detection of total or phosphorylated cofilin was performed using chemiluminescence kit ECL™ Plus (GE Healthcare RPN2132). For each concentration of compound, ratio between phosphorylated cofilin and total cofilin is determined. This ratio is then expressed as percentage of control ratio (i.e., ratio from DMSO treated cells). IC50 P-MEK/Total MEK is then determined.
# (§4) Selectivity ratios are calculated by dividing the IC50 P-MEK/Total MEK value (μM) by the IC50 Phospho-Ser3-Cofilin/Total Cofilin value (μM).
# [4] = tested on: P-MEK/Total MEK; assay: Western blot MEK1 phosphorylation, MOLM-13; type: cell-based; settings: for IC50: Homo sapiens, read-out: IC50 P-MEK/Total MEK
# Method: as §1, with “MOLM-13” for “HL-60”, “20%” for “10%”
# as §3, §4
# [5] = target: LIMK1(h) (Homo sapiens, UniProt P53667); assay: LIMK1 kinase assay (Eurofins Panlabs, radiometric); type: biochemical; design: purchased Eurofins Panlabs Inc. (contract assay service)
# Chain of LIMK1(h) (P53667 whole entry): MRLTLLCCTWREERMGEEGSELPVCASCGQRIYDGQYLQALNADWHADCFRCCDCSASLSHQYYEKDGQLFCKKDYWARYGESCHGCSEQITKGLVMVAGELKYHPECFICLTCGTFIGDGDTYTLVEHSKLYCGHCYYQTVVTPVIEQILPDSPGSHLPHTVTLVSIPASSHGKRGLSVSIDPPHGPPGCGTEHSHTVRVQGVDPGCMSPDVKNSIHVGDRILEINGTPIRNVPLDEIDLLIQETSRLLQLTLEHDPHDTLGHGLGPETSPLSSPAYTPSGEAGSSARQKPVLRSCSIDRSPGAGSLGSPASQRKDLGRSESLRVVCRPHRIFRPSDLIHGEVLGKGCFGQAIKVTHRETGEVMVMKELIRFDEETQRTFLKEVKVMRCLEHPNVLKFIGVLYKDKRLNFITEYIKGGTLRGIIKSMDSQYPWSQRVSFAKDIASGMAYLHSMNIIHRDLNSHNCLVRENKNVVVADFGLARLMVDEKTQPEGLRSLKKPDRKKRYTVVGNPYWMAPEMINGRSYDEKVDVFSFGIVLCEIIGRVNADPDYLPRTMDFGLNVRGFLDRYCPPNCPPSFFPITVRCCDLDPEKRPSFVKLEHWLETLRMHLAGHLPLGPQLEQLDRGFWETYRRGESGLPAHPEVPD
# Method: Compounds were tested in a LIMK1 assay performed by Eurofins Panlabs Inc. LIMK1 (h) is incubated with 8 mM MOPS pH 7.0, 0.2 mM EDTA, 0.6 mg/mL cofilin, 10 mM Magnesium acetate and [gamma-33P]-ATP. The reaction is initiated by the addition of the Mg/ATP mix. After incubation for 40 min at room temperature, the reaction is stopped by the addition of phosphoric acid to a concentration of 0.5%. […] IC50 LIMK1 is then determined.
# [6] = target: B-Raf(h) (Homo sapiens, UniProt P15056); assay: B-Raf kinase assay (Eurofins Panlabs, radiometric); type: biochemical; design: purchased Eurofins Panlabs Inc. (contract assay service)
# Chain of B-Raf(h) (P15056 whole entry): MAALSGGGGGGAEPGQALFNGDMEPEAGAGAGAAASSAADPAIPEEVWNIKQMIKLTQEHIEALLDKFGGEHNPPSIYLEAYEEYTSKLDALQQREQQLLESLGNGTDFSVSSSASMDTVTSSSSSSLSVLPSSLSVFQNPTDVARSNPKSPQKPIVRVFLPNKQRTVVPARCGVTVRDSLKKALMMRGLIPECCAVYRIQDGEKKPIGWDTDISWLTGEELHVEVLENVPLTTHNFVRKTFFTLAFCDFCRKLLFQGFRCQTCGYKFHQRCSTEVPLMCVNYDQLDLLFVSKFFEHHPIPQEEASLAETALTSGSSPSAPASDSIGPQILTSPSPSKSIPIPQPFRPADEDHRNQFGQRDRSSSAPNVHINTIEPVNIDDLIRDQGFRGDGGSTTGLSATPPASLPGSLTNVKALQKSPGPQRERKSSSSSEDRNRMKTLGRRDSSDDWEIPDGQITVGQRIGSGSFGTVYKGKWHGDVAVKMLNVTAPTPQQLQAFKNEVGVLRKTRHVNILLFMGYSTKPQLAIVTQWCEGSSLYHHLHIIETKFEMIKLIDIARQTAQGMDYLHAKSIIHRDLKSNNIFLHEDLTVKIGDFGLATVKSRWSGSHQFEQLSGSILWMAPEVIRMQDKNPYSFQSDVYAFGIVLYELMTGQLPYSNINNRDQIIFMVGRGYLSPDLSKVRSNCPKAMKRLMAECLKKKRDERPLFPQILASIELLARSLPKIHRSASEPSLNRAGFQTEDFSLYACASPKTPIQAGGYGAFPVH
# Method: IC50 B-Raf is then determined.
# Selectivity ratios are calculated by dividing the IC50 B-Raf (nM) by the IC50 LIMK1 (nM).
# [7] = tested on: Phospho-Ser3-Cofilin/Total Cofilin; assay: Western blot cofilin phosphorylation, THP-1; type: cell-based; settings: Homo sapiens; THP-1 cells; 2 h
# Method: as §1, with “THP-1” for “HL-60”, “20%” for “10%”
# In a 6 wells plate (Falcon 353046), 2·10^6 cells in 1.5 mL medium are treated for 2 h with compounds. Cells are then collected and cell lysis is performed at 4° C. using RIPA buffer supplemented with protease inhibitors cocktail (Sigma-Aldrich P8340) and phosphatase inhibitors cocktail (Sigma-Aldrich P5726). Following centrifugation 30 min 15000 g 4° C., supernatants are mixed with Laemmli buffer and denaturation is performed by heating 5 min 95° C. 10 μL of samples are subjected to electrophoresis on 15% SDS-PAGE. After electro-transfer (Mini Transblot, Bio-Rad), the PVDF membrane (Merck-Millipore Immobilon P IPVH00010) is blocked with Tris Buffered Saline, pH 7.4 (TBS) with 0.1% Tween 20 and 5% BSA for 1 h RT under agitation. […] For each concentration of compound, ratio between phosphorylated cofilin and total cofilin is determined. This ratio is then expressed as percentage of control ratio (i.e., ratio from DMSO treated cells). IC50 Phospho-Ser3-Cofilin/Total Cofilin is then determined.
# [8] = tested on: P-MEK/Total MEK; assay: Western blot MEK1 phosphorylation, THP-1; type: cell-based; settings: for IC50: Homo sapiens, read-out: IC50 P-MEK/Total MEK
# Method: Cells were maintained at 37° C. with 5% CO2.
# as §3, §4
# [9] = 120 μM ATP, Table 8, read-out: IC50 B-Raf
# [10] = IC50 B-Raf (nM) divided by IC50 LIMK1 (nM), Table 8
structure (smiles),measurement,setting,value
O=S(=O)(Nc1cccc(-c2nc(CCO)sc2-c2ccnc(Nc3ccccc3)n2)c1F)c1c(F)cccc1F [8 (Na)],IC50,[1],< 200 nM
same,IC50,[2]; 2 h,< 200 nM
same,IC50,[3],> 1000 nM
same,Selectivity ratio,[3],42
same,IC50,"[4]; MOLM-13 cells, 2 h",> 1000 nM
same,Selectivity ratio,"[4]; MOLM-13 cells, IC50 P-MEK/Total MEK divided by IC50 Phospho-Ser3-Cofilin/Total Cofilin",42
same,IC50,"[5]; 15 μM ATP, Table 8, read-out: IC50 LIMK1",< 10 nM
same,IC50,[6]; [9],10 to 100 nM
same,Selectivity ratio,[6]; [10],9
"CC(C)(C)c1nc(-c2cccc(NS(=O)(=O)c3c(F)cccc3F)c2F)c(-c2ccnc(Nc3ccccc3)n2)s1 [Compound 1, N-(3-(2-(tert-butyl)-5-(2-(phenylamino)pyrimidin-4-yl)thiazol-4-yl)-2-fluorophenyl)-2,6-difluorobenzenesulfonamide]",IC50,[5],10 to 100 nM
same,IC50,"[5]; read-out: IC50 LIMK1, Table 5, value reported in part II.1",10 to 100 nM
same,selectivity ratio for LIMK1 over B-Raf,[6]; IC50 B-Raf (nM) divided by IC50 LIMK1 (nM),about 20
same,Selectivity ratio,[6]; [10],8
same,IC50,"[6]; IC50 B-Raf, 120 μM ATP, Table 8",10 to 100 nM
same,IC50,"[6]; IC50 B-Raf, Table 5",500 to 5000 nM
"O=S(=O)(Nc1cccc(-c2nc(CCO)sc2-c2ccnc(Nc3ccccc3)n2)c1F)c1c(F)cccc1F [Compound 8, 2,6-difluoro-N-(2-fluoro-3-(2-(2-hydroxyethyl)-5-(2-(phenylamino)pyrimidin-4-yl)thiazol-4-yl)phenyl)benzenesulfonamide]",IC50,[7],< 200 nM
same,IC50,[1]; Homo sapiens,< 200 nM
same,IC50,"[8]; THP-1 cells, 2 h",200 to 1000 nM
same,Selectivity ratio,"[8]; THP-1 cells, IC50 P-MEK/Total MEK divided by IC50 Phospho-Ser3-Cofilin/Total Cofilin",80
same,Selectivity ratio,[3],31
same,IC50,[3]; Homo sapiens,> 1000 nM
same,IC50,"[5]; 15 μM ATP, Table 2, read-out: IC50 LIMK1",< 10 nM
"CNC(=O)Cc1nc(-c2cccc(NS(=O)(=O)c3c(F)cccc3F)c2F)c(-c2ccnc(Nc3ccccc3)n2)s1 [Compound 9, 2-(4-(3-(2,6-difluorophenylsulfonamido)-2-fluorophenyl)-5-(2-(phenylamino)pyrimidin-4-yl)thiazol-2-yl)-N-methylacetamide]",IC50,[7],< 200 nM
same,IC50,"[2]; MOLM-13, 2 h",< 200 nM
same,IC50,"[8]; THP-1, 2 h",200 to 1000 nM
same,IC50,"[4]; MOLM-13, 2 h",> 1000 nM
same,IC50,[6]; [9],10 to 100 nM
